Marks after values point to notes of the source that are not given here.
How the values were obtained:
[1] = Body weight and general state of castrated male rabbits during and after topical eye administration; details: x ± s, n=5
Procedure: (§1) 5, 2014-Oct. […] Body weight was measured on the first day and the last day of the quarantine period. • 7 Grouping and Identifying Method for Experimental Animals • 7.1 Identifying method for animals • 7.1.1 Quarantine period: fed in separate cages, tag hung on each cage, and no marking of animals. • 7.1.2 Administration observation period: marked by staining with saturated picric acid solution, and 5 rabbits in each group were marked in the following ways, respectively: head, back, tail, head and back, and white. • 7.2 Grouping of experimental animals: after the quarantine period was finished, 5 rabbits were randomly selected according to the body weight and used in the normal control group, and the rest rabbits were used in the modeling group. […] 5, 2014-Aug. 11, 2014 • 9.3 Date of grouping: Aug. 12, 2014, Sep. 15, 2014 • 9.4 Date of modeling: Aug. 12, 2014 • 9.5 Administration time: Sep. 15, 2014 • 9.6 Animal sacrifice time: Oct. 27, 2014 • 9.2 Duration of administration: two consecutive weeks from Sep. 15, 2014 to Sep. […] An aseptic towel was spread out, testicles at two sides were sequentially squeezed into the scrotum from abdominal cavity and clenched to prevent them from sliding, a small opening was cut on the scrotum with a sterilized blade, the testicles were squeezed out by force, the spermatic vein and vas deferens were ligated, the testicles and epididymis were cut out, the scrotum skin was sutured, and iodine tincture was coated locally to prevent infection. • 11.2 Administration method: administration was started on day 35 after the operation, at a prescribed dose for 14 consecutive days. • 11.3 Detection indexes: for each group, basal tear secretion (Schirmer I test), corneal fluorescence staining (PI) and tear film break-up time (BUT) were detected before the modeling and on days 0, 7, and 14 after the administration by performing surface anesthesia. • 11.3.1 Basal tear secretion (Schirmer I test): the 5 mm forepart of a qualitative filter paper (35 mm×6 mm) was reversely folded and placed in the lower eyelid bitamporal conjunctival sac, and the tear infiltration length (including the reversely-folded segment) of the test paper after 5 min was detected and recorded. • 11.3.2 Scoring criteria for corneal fluorescence staining (PI): 1% fluorescein sodium was applied to both eyes of a rabbit without subsequent rinsing, and a slit-lamp microscope was used for observation.

[2] = system: dry eye syndrome caused by castration of male rabbits; experiment: Basal tear secretion (Schirmer I test) in castrated male rabbits; type: in vivo, Japanese big-ear white rabbit
Procedure: as §1

[3] = system: dry eye syndrome caused by castration of male rabbits; experiment: Corneal fluorescence staining (PI) score in castrated male rabbits; type: in vivo, Japanese big-ear white rabbit; details: score 0-4, x ± s, n=5
Procedure: (§2) 5, 2014-Oct. […] Body weight was measured on the first day and the last day of the quarantine period. • 7 Grouping and Identifying Method for Experimental Animals • 7.1 Identifying method for animals • 7.1.1 Quarantine period: fed in separate cages, tag hung on each cage, and no marking of animals. • 7.1.2 Administration observation period: marked by staining with saturated picric acid solution, and 5 rabbits in each group were marked in the following ways, respectively: head, back, tail, head and back, and white. • 7.2 Grouping of experimental animals: after the quarantine period was finished, 5 rabbits were randomly selected according to the body weight and used in the normal control group, and the rest rabbits were used in the modeling group. […] 5, 2014-Aug. 11, 2014 • 9.3 Date of grouping: Aug. 12, 2014, Sep. 15, 2014 • 9.4 Date of modeling: Aug. 12, 2014 • 9.5 Administration time: Sep. 15, 2014 • 9.6 Animal sacrifice time: Oct. 27, 2014 • 9.2 Duration of administration: two consecutive weeks from Sep. 15, 2014 to Sep. […]

[4] = system: dry eye syndrome caused by castration of male rabbits; experiment: Histopathology examination of harderian gland and meibomian gland in castrated male rabbits; type: in vivo, Japanese big-ear white rabbit; details: HE sections, in words
Procedure: as §2

[5] = topical to the eyes for 14 days
[6] = castrated male rabbits, topical to the eyes, Schirmer I 5 min, x ± s, n=5

CCC(=O)O[C@H]1CC[C@H]2[C@@H]3CCC4=CC(=O)CC[C@]4(C)[C@H]3CC[C@]12C [Positive 2, testosterone propionate]
Weight of rabbits, Day 7 after drug withdrawal [1, 5]: 3.0 ± 1.21 kg
Weight of rabbits, Day 14 after drug withdrawal [1, 5]: 3.3 ± 1.31 kg
Weight of rabbits, Day 21 after drug withdrawal [1, 5]: 3.6 ± 1.07 kg
Weight of rabbits, Day 28 after drug withdrawal [1, 5]: 4.0 ± 1.20 kg
Weight of rabbits, Day 7 of administration ([1]; topical to the eyes): 2.4 ± 1.10 kg
Weight of rabbits, Day 14 of administration ([1]; topical to the eyes): 2.6 ± 1.05 kg
Tear secretion, Day 28 after drug withdrawal ([2]; castrated male rabbits, topical to the eyes for 14 days, Schirmer I 5 min, x ± s, n=5): 12.2 ± 3.48 mm
Tear secretion, Day 7 of administration [2, 6]: 12.7 ± 2.84 mm
Tear secretion, Day 14 of administration [2, 6]: 14.8 ± 3.17*^Δ▴ mm
Tear secretion, effect in words ([2]; castrated rabbits, compared with the model group and the solvent group (P<0.05)): increased markedly
Corneal staining score, Day 28 after drug withdrawal [3, 5]: 3.0 ± 1.22
Corneal staining score, Day 7 of administration ([3]; topical to the eyes): 2.8 ± 0.22
Corneal staining score, Day 14 of administration ([3]; topical to the eyes): 2.2 ± 0.57*^Δ▴
Histopathology of harderian gland and meibomian gland compared with the model group [4]: marked ameliorating

From patent publication US20230364047A1, “USE OF ESTER GROUP-[…] PR[…] IN PREPARATION OF MEDICINE FOR TREATING DRY EYE SYNDROME” (CHANGCHUN GENESCIENCE PHARMACEUTICAL CO., LTD., priority 2020, published 2023)
